The values below come from US6593363B1, “Diterpene derivatives and anti-inflammatory analgesic agents comprising the same” (Sae Han Pharm. Co., Ltd., priority 1998, dated 2003).

One data set relates to Raw 264.7. Nature of the data set: Cytotoxicity, MTT assay. In kind it is cell-based. To be noted: Raw 264.7, MTT assay at 48 hours after sample treatment. As to the method: (§1) To investigate the utility of diterpene derivatives synthesized, cytotoxicities of some derivatives were tested.
(§2) The cytotoxicity was tested using Raw 264.7. The cytotoxicity and non-cytotoxicity were judged by performing MTT assay at 48 hours after sample treatment.

The next data set deals with T1, COX-2 (Ovis aries, UniProt P79208).
T1 construct: 3 Unit of COX-2 (Layman chemical) that is separated from sheep placenta and purified; purchased Layman chemical (sic); host or cells: sheep placenta (tissue-derived)
T1 sequence (P79208 17-603): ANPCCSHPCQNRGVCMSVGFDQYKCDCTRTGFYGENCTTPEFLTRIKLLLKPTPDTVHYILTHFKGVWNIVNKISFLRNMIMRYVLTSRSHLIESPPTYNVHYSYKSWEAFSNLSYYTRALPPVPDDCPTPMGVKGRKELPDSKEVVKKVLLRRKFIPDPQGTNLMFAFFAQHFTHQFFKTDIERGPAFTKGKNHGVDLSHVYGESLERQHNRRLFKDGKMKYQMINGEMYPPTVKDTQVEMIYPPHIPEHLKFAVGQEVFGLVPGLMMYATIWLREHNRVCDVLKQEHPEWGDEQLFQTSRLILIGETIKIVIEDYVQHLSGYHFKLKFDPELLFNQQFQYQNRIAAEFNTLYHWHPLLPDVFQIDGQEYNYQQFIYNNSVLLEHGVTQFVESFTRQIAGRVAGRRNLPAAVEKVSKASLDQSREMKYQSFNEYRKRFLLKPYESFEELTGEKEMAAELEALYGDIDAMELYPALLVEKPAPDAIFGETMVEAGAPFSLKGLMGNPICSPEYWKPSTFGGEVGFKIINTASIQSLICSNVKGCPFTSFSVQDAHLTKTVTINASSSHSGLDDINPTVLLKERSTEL
Nature of the data set: Inhibition of PGE2 synthesis by inhibiting COX-2 activity (in vitro, TLC/autoradiography). In kind it is biochemical, sheep. As to conditions: for IC50: 3 Unit COX-2 from sheep placenta, [1-14C] arachidonic acid, 37° C. for 20 min. As to the method: The inhibition effect of the novel derivatives against PGE2 synthesis was tested in vitro. […] The novel derivatives were synthesized from (−)-pimara-9(11), 15-diene-4-carboxylic acid, which is a diterpene compound isolated from root-bark of Acanthopanax Koreanum.
The mixture was stranded on ice for 5 min. To the mixture, the sample for assay of COX-2 activity was added, and then incubated on ice for 10 min. After preincubation, 0.02 μCi of [1-^14C] arachidonic acid, as an substrate, was added, and reacted at 37° C. for 20 min. For the termination of the reaction, 10 μl of 2 M HCl was added. Prostaglandin produced was extracted with ethylether twice. Two ethylether layers were integrated, and the solvent was evaporated at a 37° C. water-bath. […] PGE2 part of TLC plate developed was observed using autoradiography (PACKARD). The amount of PGE2 decreased by the sample was compared with reference, and then COX-2 inhibition activity of the sample was determined.

The test system of data set [1] is mono-arthritis model, tibeo-calcanean joint. The experiment in a line: Anti-inflammatory activity against acute inflammation, adjuvant mono-arthritis model (edema index). In kind it is in vivo. To be noted: rat, 5 mg/kg intraperitoneal; for edema index size: 1 hour after inducing inflammation; for effect on edema index compared with koprofen or indometacin: after 4 hours. The protocol: For some of the natural single material and synthetic derivatives thereof, of which the inhibition effect against PGE2 synthesis was tested in Experimental example 1, the anti-inflammatory activity against arthritis was tested using a mono-arthritis model as follows:
Derivatives synthesized were dissolved in the mixed solvent of ethanol: Tween 80: saline (1:1:8), and then administered by intrapertioneal injection. Referring to the result of the in vitro test, 5 mg/kg was used as a dose for primary screening test. Adjuvant that was dissolved in mineral oil and then sterilized, was administered into tibeo-calcanean joint of right crus posterius of rat to induce arthritis. The injection volume is controlled to be contained M. butyricum 100 μg/50 μl.
Edema degree was determined primarily, and the degree was used as an index of inflammation. The degree was determined by the estimation method for section area of tibeo-calcanean joint part. Width and length measurements of the joint part were taken according to time schedule upon inducing inflammation, and the width multiplied by the length. The multiplied value was then used as a section area index (SAI). On the basis of the section area index, edema index was calculated as follows: […]
(SAI of inflammatory joint−SAI of normal joint)
Each index was determined at 1, 4 and 24 hours after adjuvant injection. The index value determined at the same part before adjuvant injection was used as one of normal joint.
Unpaired t-test or ANOVA using Fisher PLSD verified the statistical significance.

A short description of the next data set: Cytotoxicity, MTT assay. To be noted: mouse, Raw 264.7 cells; Raw 264.7, MTT assay at 48 hours after sample treatment. In kind it is cell-based. As to the method: as §1, §2

As usually defined, the IC50 is the point on the concentration scale where inhibition reaches its midpoint. A lower IC50 goes with greater potency in that assay.

Some results are limits rather than exact numbers.

In the case of “13-Isoxazolinyl-(−)-pimara-9(11)-en-4-carboxylic acid [Example 21]”, the IC50 in the data set with Raw 264.7 was 250 µM; against COX-2 it was over 2000 µM.
In turn, “16-Hydroxy-(−)-pimara-4-carboxylic acid [Example 16]” returned an IC50 in the data set with Raw 264.7 of 137 µM. The “inhibition effect against PGE2 synthesis (in words)” value (from here on “inhibition effect”) against COX-2 is “excellent inhibition effect”.
In the case of “16-Methoxyethoxymethoxy-(−)-Pimara-9(11)-En-4-Carboxylic Acid [Example 52]”, the IC50 against COX-2 was over 2000 µM.
For the molecule `C=C[C@@]1(C)CC=C2C(CCC3[C@](C)(C(=O)O)CCC[C@@]23C)C1` (single isomer, unassigned; (-)) [Natural Component, (−)-pimara-9(11),15-diene-4-carboxylic acid, reference compound], the half-inhibitory concentration (IC50) on COX-2 amounted to 790 µM.
`C=CC1(C)CC=C2C(CCC3C(C)(CO)CCCC23C)C1` (stereo not drawn) [Example 1, 4-Hydroxymethyl-(−)-pimara-9(11),15-diene] yielded a half-inhibitory concentration (IC50) against COX-2 of over 2000 µM.
In turn, `C=CC1(C)CC=C2C(CCC3C(C)(CC(=O)O)CCCC23C)C1` (stereo not drawn) [Example 5, 4-Carboxymethyl-(−)-pimara-9(11),15-diene] showed a half-inhibitory concentration (IC50) in the data set on Raw 264.7 of 140 µM. On COX-2, the “inhibition effect” value is on record as “excellent inhibition effect” and the IC50 worked out at 82.3 µM. In data set [1], the edema index size entry is reported as “not more then half” and the “effect on edema index compared with koprofen or indometacin” value is given as “even superior effect”.
Take `C=CC1(C)CC=C2C(CCC3C(C)(C=CC(=O)O)CCCC23C)C1` (stereo not drawn) [Example 7, 4-Carboxyvinyl-(−)-pimara-9(11),15-diene]: the “inhibition effect” value against COX-2 was “excellent inhibition effect”.
With `C=C[C@@]1(C)CC=C2C(CCC3[C@@]2(C)CCC[C@@]3(C)/C=C/C(=O)O)C1` (stereo partly drawn) [Example 7, 4-Carboxyvinyl-(−)-pimara-9(11),15-diene], the 50% inhibitory concentration (IC50) at 48 h in “Cytotoxicity, MTT assay” is 139 µM. On COX-2, this molecule showed a 50% inhibitory concentration (IC50) of 69.7 µM.
Take `C=C[C@@]1(C)CC=C2[C@@H](CC[C@@H]3[C@](C)(CCC(=O)O)CCC[C@@]23C)C1` [Example 9, 4-Carboxyethyl-(−)-pimara-9(11),15-diene]: in “Cytotoxicity, MTT assay”, the IC50 at 48 h amounted to 114 µM. On COX-2, the “inhibition effect” value is reported as “excellent inhibition effect” and the IC50 came to 105 µM. In addition, in data set [1], the edema index size entry is “not more then half” and the “effect on edema index compared with koprofen or indometacin” value is listed as “even superior effect”.
Regarding `C=C[C@@]1(C)CC=C2C(CCC3[C@](C)(C(N)=O)CCC[C@@]23C)C1` (stereo partly drawn) [Example 11, 4-Carbamoyl-(−)-pimara-9(11), 15-diene], the IC50 at COX-2 is over 2000 µM.
In the case of `C=CC1(C)CC=C2C(CCC3C(C)(C(=O)NC)CCCC23C)C1` (stereo not drawn) [Example 12, 4-(N-methyl)carbamoyl-(−)-pimara-9(11), 15-diene], at COX-2, the IC50 was over 2000 µM.
Regarding `C=C[C@@]1(C)CC=C2C(CCC3[C@](C)(C(=O)NN)CCC[C@@]23C)C1` (stereo partly drawn) [Example 13, 4-Carbazoyl-(−)-pimara-9(11), 15-diene], the IC50 on COX-2 was found to be 41.9 µM.
Consider `C=CC1(C)CC=C2C(CCC3C(C)(C(=O)NO)CCCC23C)C1` (stereo not drawn) [Example 14, 4-(N-hydroxy)carbaomyl-(−)-pimara-9(11), 15-diene], for which the concentration for half-maximal inhibition (IC50) at COX-2 stood at 819 µM.
For `C[C@]1(CCO)CC=C2C(CCC3[C@](C)(C(=O)O)CCC[C@@]23C)C1` (stereo partly drawn) [Example 15, 16-Hydroxy-(−)-pimara-9(11)-en-4-carboxylic acid], in the data set “Cytotoxicity, MTT assay”, the concentration for half-maximal inhibition (IC50) at 48 h turned out to be 139 µM. This molecule also registered a half-inhibitory concentration (IC50) against COX-2 of over 2000 µM.
On to `CC1(CCO)CC(O)C2C(CCC3C(C)(C(=O)O)CCCC23C)C1` (stereo not drawn) [Example 19, 11,16-Dihydroxy-(−)-pimara-4-carboxylic acid], for which the concentration for half-maximal inhibition (IC50) in the data set with Raw 264.7 is 152 µM; at COX-2, over 2000 µM.
Consider `C=C[C@@]1(C)CC=C2C(CCC3[C@@]2(C)CCC[C@@]3(C)/C=C/C=C/C(=O)O)C1` (stereo partly drawn) [Example 29, 4-Carboxybutadienyl-(−)-pimara-9(11),15-diene], for which 26.8 µM corresponded to half-maximal inhibition against COX-2 (IC50).
With `C=CC1(C)CC=C2C(CCC3C(C)(CCC=CC(=O)O)CCCC23C)C1` (stereo not drawn) [Example 33, 4-Carboxyhomoallyl-(−)-pimara-9(11),15-diene], the IC50 at COX-2 stood at 63.8 µM.
In the case of `C=CC1(C)CC=C2C(CCC3C(C)(CC(=O)NS(=O)(=O)c4ccc(I)cc4)CCCC23C)C1` (stereo not drawn) [Example 38, 4-(N-pipsyl)carbamoylmethyl-(−)-pimara-9(11),15-diene], at COX-2, half-maximal inhibition (IC50) was put at 72.2 µM.
Turning to `C=CC1(C)CC=C2C(CCC3C(C)(CCC(=O)NS(=O)(=O)c4ccc(I)cc4)CCCC23C)C1` (stereo not drawn) [Example 40, 4-(N-pipsyl)carbamoylethyl-(−)-pimara-9(11),15-diene], the half-maximal inhibitory concentration (IC50) at COX-2 stood at 60.7 µM.
Take `C=CC1(C)CC=C2C(CCC3C(C)(CCC(=O)NS(C)(=O)=O)CCCC23C)C1` (stereo not drawn) [Example 41, 4-(N-methanesulfonyl)carbamoylethyl-(−)-pimara-9(11),15-diene]: the IC50 at COX-2 amounted to 180 µM.
Molecule `C=CC1(C)CC=C2C(CCC3C(C)(C=CC=CC(=O)NS(=O)(=O)c4ccc(I)cc4)CCCC23C)C1` (stereo not drawn) [Example 43, 4-(N-Pipsyl)Carbamoylbutadienyl-(−)-Pimara-9(11),15-Diene] registered a half-inhibitory concentration (IC50) against COX-2 of 25.6 µM.
For the molecule `COCC[C@@]1(C)CC=C2[C@@H](CC[C@@H]3[C@](C)(C(=O)O)CCC[C@@]23C)C1` [Example 46, 16-Methoxy-(−)-Pimara-9(11)-En-4-Carboxylic Acid], the IC50 on COX-2 is over 2000 µM.
For `CC(=O)OCCC1(C)CC=C2C(CCC3C(C)(C(=O)O)CCCC23C)C1` (stereo not drawn) [Example 48, 16-Acetyloxy-(−)-Pimara-9(11)-En-4-Carboxylic Acid], it took 1420 µM to reach half-maximal inhibition on COX-2 (IC50).
On the same count and under the same terms, in the case of `COCOCC[C@@]1(C)CC=C2[C@@H](CC[C@@H]3[C@](C)(C(=O)O)CCC[C@@]23C)C1` [Example 50, 16-Methoxymethoxy-(−)-Pimara-9(11)-En-4-Carboxylic Acid] it was over 2000 µM; in that of `CON=CCC1(C)CC=C2C(CCC3C(C)(C(=O)O)CCCC23C)C1` (stereo not drawn) [Example 55, 16-Methoxyimino-(−)-Pimara-9(11)-En-4-Carboxylic Acid], over 2000 µM.
